Consider eight molecules from patent US20130244896A1, “IN VITRO METHOD FOR PREDICTING WHETHER A COMPOUND IS GENOTOXIC IN VIVO” (priority 2012, published 2013).

One series has as its system HepG2 cells. Nature of the series: IC20-72 hours value used as exposure dose in HepG2 cells. The format is cell-based, human. As for the experimental part:
All measurements were performed in triplicate.

For series [1] the following is noted: GTX/NGTX class as in Tables 3-7; cited from earlier work.
Series [2] has as its system microRNA 1262, microRNA 98 and microRNA 30c-1.
For the next series, the system named is bacteria. The conditions noted are these: cited from earlier work.
Setting [3] is: HepG2 cells, IC20-72 hours, read-out: Dose (IC20-72 hours value).
[4] abbreviates: number of the three microRNAs predicting correctly.
Setting [5] is: correct predictions of three independent experiments.
The mark [6] stands for this setting: HepG2 cells exposed at Table 1 dose.
[7] abbreviates: Homo sapiens, HepG2 cells, IC20-72 hours, read-out: Dose (IC20-72 hours value).

Like-named read-outs stand apart in the source and are kept apart here.

For orientation: IC20 means the point of the concentration-response curve where the effect stands at 20%. Regarding `N.N.[Cl][Pt][Cl]` [Cisplatin], the IC20 with HepG2 cells (setting [3]) turned out to be 7 µM. In addition, in series [1], the GTX in vivo entry is given as “GTX”. Besides, the “Aggregate result, correct” value in series [2] (setting [4]) is 3/3.

As for `Clc1cc2c(cc1Cl)Oc1cc(Cl)c(Cl)cc1O2` [2,3,7,8-tetrachloro dibenzo-p-dioxin], in the series on hsa-miR-302b (setting [5]), the “correctness of microRNA prediction, 302b” value is recorded as “(2/3)”. In addition, in the series on hsa-miR-1262 (setting [6]), the “Score / correctness of miRNA prediction, 1262 (number of correct predictions of three independent experiments)” value is “(3/3)”. In the series on HepG2 cells (setting [7]), the IC20 was 0.01 µM. For the same molecule, the “Score / correctness of miRNA prediction, 30c-1 (number of correct predictions of three independent experiments)” value in the series with hsa-miR-30c-1* (setting [6]) is listed as “(2/3)”. Besides, the GTX in vivo entry in series [1] is on record as “NGTX”. The “correctness of microRNA prediction, 502-3p” value in the series on hsa-miR-502-3p (setting [5]) was “(2/3)”. Moreover, the “Score / correctness of miRNA prediction, 98 (number of correct predictions of three independent experiments)” value in the series on hsa-miR-98 (setting [6]) is listed as “(3/3)”. Moreover, in the series on hsa-miR-888* (setting [5]), the “correctness of microRNA prediction, 888*” value is given as “(1/3)”. Moreover, in the series with hsa-miR-885-3p (setting [5]), the “correctness of microRNA prediction, 885-3p” value is “(3/3)”. Further, the “correctness of microRNA prediction, 1229” value with hsa-miR-1229 (setting [5]) is “(2/3)”. The “Aggregate result, correct” value in series [2] (setting [4]) is listed as 3/3. Moreover, in the series with hsa-miR-891b (setting [5]), the “correctness of microRNA prediction, 891b” value is “(2/3)”. Moreover, in the series with bacteria, the Ames test result is “−”. In addition, the “correctness of microRNA prediction, 1246” value in the series with hsa-miR-1246 (setting [5]) was “(3/3)”.

Turning to `C[C@]12CC[C@@H]3c4ccc(O)cc4CC[C@H]3[C@@H]1CC[C@@H]2O` [17beta-estradiol, 17 beta-estradiol], in the series with HepG2 cells (setting [3]), the IC20 stood at 30 µM. Also, in [1], the GTX in vivo result is recorded as “NGTX”. The “Aggregate result, correct” value in [2] (setting [4]) is 3/3.

Regarding Aflatoxin B1, the “correctness of microRNA prediction, 302b” value with hsa-miR-302b is given as “(2/3)”. Further, the “Score / correctness of miRNA prediction, 1262 (number of correct predictions of three independent experiments)” value in the series on hsa-miR-1262 was “(2/3)”. For the same molecule, in the series with HepG2 cells (read-out: Dose (IC20-72 hours value)), the IC20 is 1 µM. The “Score / correctness of miRNA prediction, 30c-1 (number of correct predictions of three independent experiments)” value in the series on hsa-miR-30c-1* was “(2/3)”. In addition, the “correctness of microRNA prediction, 502-3p” value with hsa-miR-502-3p is reported as “(2/3)”. Moreover, the “Score / correctness of miRNA prediction, 98 (number of correct predictions of three independent experiments)” value in the series on hsa-miR-98 is recorded as “(2/3)”. Further, the “correctness of microRNA prediction, 888*” value with hsa-miR-888* was “(3/3)”. Moreover, the “correctness of microRNA prediction, 885-3p” value in the series on hsa-miR-885-3p is recorded as “(1/3)”. Moreover, the “correctness of microRNA prediction, 1229” value in the series on hsa-miR-1229 was “(1/3)”. Moreover, the “Aggregate result, correct” value in [2] is 3/3. Also, in the series on hsa-miR-891b, the “correctness of microRNA prediction, 891b” value is reported as “(2/3)”. In addition, in the series on hsa-miR-1246, the “correctness of microRNA prediction, 1246” value is “(1/3)”.

As for `O=c1c(O)c(-c2ccc(O)c(O)c2)oc2cc(O)cc(O)c12` [Quercetin], the “correctness of microRNA prediction, 302b” value in the series with hsa-miR-302b (setting [5]) is on record as “(1/3)”. Also, the “Score / correctness of miRNA prediction, 1262 (number of correct predictions of three independent experiments)” value with hsa-miR-1262 (setting [6]) is listed as “(3/3)”. The IC20 in the series on HepG2 cells (setting [7]) came to 50 µM. For the same molecule, the “Score / correctness of miRNA prediction, 30c-1 (number of correct predictions of three independent experiments)” value in the series on hsa-miR-30c-1* (setting [6]) was “(3/3)”. Also, in [1], the GTX in vivo result is recorded as “NGTX”. The “correctness of microRNA prediction, 502-3p” value with hsa-miR-502-3p (setting [5]) is recorded as “(1/3)”. Besides, in the series on hsa-miR-98 (setting [6]), the “Score / correctness of miRNA prediction, 98 (number of correct predictions of three independent experiments)” value is listed as “(1/3)”. In addition, in the series on hsa-miR-888* (setting [5]), the “correctness of microRNA prediction, 888*” value is given as “(1/3)”. The “correctness of microRNA prediction, 885-3p” value with hsa-miR-885-3p (setting [5]) is listed as “(1/3)”. In addition, in the series with hsa-miR-1229 (setting [5]), the “correctness of microRNA prediction, 1229” value was “(1/3)”. Moreover, in [2] (setting [4]), the “Aggregate result, correct” value was 2/3. Also, the “correctness of microRNA prediction, 891b” value in the series on hsa-miR-891b (setting [5]) is on record as “(2/3)”. Besides, in the series on hsa-miR-1246 (setting [5]), the “correctness of microRNA prediction, 1246” value is reported as “(2/3)”.

Regarding `Oc1cccc2cccnc12` [8-quinolinol], the “correctness of microRNA prediction, 302b” value in the series with hsa-miR-302b (human) is on record as “(1/3)”. Moreover, the IC20 with HepG2 cells (Homo sapiens, HepG2, read-out: Dose (IC20-72 hours value)) was 15 µM. The “Prediction, miRNA 30c-1” value in the series on hsa-miR-30c-1* was “GTX (key: GTX: hsa-miR-30c-1*: Prediction if Expression is above Reference value; NGTX: hsa-miR-30c-1*: Prediction if Expression is below Reference value)”. Besides, in the series with hsa-miR-30c-1* (human), the “Score / correctness of miRNA prediction, 30c-1 (number of correct predictions of three independent experiments)” value is “(1/3)”. Also, the “correctness of microRNA prediction, 502-3p” value in the series on hsa-miR-502-3p (human) was “(2/3)”. In addition, the “Prediction, miRNA 98” value with hsa-miR-98 is on record as “NGTX (key: GTX: hsa-miR-98: Prediction if Expression is above Reference value; NGTX: hsa-miR-98: Prediction if Expression is below Reference value)”. Besides, the “Score / correctness of miRNA prediction, 98 (number of correct predictions of three independent experiments)” value in the series on hsa-miR-98 (human) is “(3/3)”. Besides, the “correctness of microRNA prediction, 888*” value in the series on hsa-miR-888* (human) is listed as “(3/3)”. In addition, the “correctness of microRNA prediction, 885-3p” value in the series on hsa-miR-885-3p (human) is listed as “(1/3)”. Further, the “correctness of microRNA prediction, 1229” value in the series with hsa-miR-1229 (human) was “(3/3)”. The “Aggregate result, result” value in series [2] was “NGTX”. In [2] (human), the “Aggregate result, correct” value was 2/3. Also, in the series with hsa-miR-891b (human), the “correctness of microRNA prediction, 891b” value is “(3/3)”. In addition, the Ames test result in the series on bacteria is reported as “+”. The “correctness of microRNA prediction, 1246” value with hsa-miR-1246 (human) is reported as “(0/3)”.

With `c1ccc2c(c1)cc1ccc3cccc4ccc2c1c34` [Benzo[a]pyere], the “correctness of microRNA prediction, 302b” value with hsa-miR-302b (setting [5]) is listed as “(2/3)”. Further, the “Score / correctness of miRNA prediction, 1262 (number of correct predictions of three independent experiments)” value in the series with hsa-miR-1262 (setting [6]) is “(2/3)”. Also, the IC20 in the series with HepG2 cells (setting [3]) turned out to be 2 µM. Moreover, in the series on hsa-miR-30c-1* (setting [6]), the “Score / correctness of miRNA prediction, 30c-1 (number of correct predictions of three independent experiments)” value is listed as “(2/3)”. In addition, the “correctness of microRNA prediction, 502-3p” value in the series on hsa-miR-502-3p (setting [5]) is reported as “(2/3)”. Moreover, in the series on hsa-miR-98 (setting [6]), the “Score / correctness of miRNA prediction, 98 (number of correct predictions of three independent experiments)” value is “(2/3)”. Further, in the series with hsa-miR-888* (setting [5]), the “correctness of microRNA prediction, 888*” value is listed as “(2/3)”. In addition, the “correctness of microRNA prediction, 885-3p” value in the series on hsa-miR-885-3p (setting [5]) is recorded as “(2/3)”. Further, in the series with hsa-miR-1229 (setting [5]), the “correctness of microRNA prediction, 1229” value was “(3/3)”. For the same molecule, the “Aggregate result, correct” value in [2] (setting [4]) was 3/3. The “correctness of microRNA prediction, 891b” value in the series on hsa-miR-891b (setting [5]) is on record as “(3/3)”. In the series with hsa-miR-1246 (setting [5]), the “correctness of microRNA prediction, 1246” value is reported as “(3/3)”.

In the case of `CC1(C)S[C@@H]2[C@H](NC(=O)[C@H](N)c3ccccc3)C(=O)N2[C@H]1C(=O)O` [Ampicillin trihydrate], in the series on hsa-miR-302b (setting [5]), the “correctness of microRNA prediction, 302b” value is given as “(2/3)”. Moreover, the “Score / correctness of miRNA prediction, 1262 (number of correct predictions of three independent experiments)” value with hsa-miR-1262 (setting [6]) is on record as “(2/3)”. In addition, the IC20 in the series with HepG2 cells (setting [7]) worked out at 250 µM. Also, the “Score / correctness of miRNA prediction, 30c-1 (number of correct predictions of three independent experiments)” value in the series with hsa-miR-30c-1* (setting [6]) was “(3/3)”. The “correctness of microRNA prediction, 502-3p” value in the series with hsa-miR-502-3p (setting [5]) is given as “(3/3)”. For the same molecule, the “Score / correctness of miRNA prediction, 98 (number of correct predictions of three independent experiments)” value in the series on hsa-miR-98 (setting [6]) is listed as “(3/3)”. Moreover, the “correctness of microRNA prediction, 888*” value in the series with hsa-miR-888* (setting [5]) is recorded as “(3/3)”. In addition, the “correctness of microRNA prediction, 885-3p” value in the series with hsa-miR-885-3p (setting [5]) was “(3/3)”. Moreover, the “correctness of microRNA prediction, 1229” value in the series on hsa-miR-1229 (setting [5]) was “(3/3)”. Further, the “Aggregate result, correct” value in series [2] (setting [4]) is reported as 3/3. Further, in the series on hsa-miR-891b (setting [5]), the “correctness of microRNA prediction, 891b” value is listed as “(2/3)”. Moreover, the “correctness of microRNA prediction, 1246” value in the series on hsa-miR-1246 (setting [5]) is reported as “(1/3)”.
